Assay results reported in patent US12428396B2, “Fused pyridine ring derivative, preparation method therefor, and pharmaceutical use thereof” (priority 2019, dated 2025).

Legend:
[1] = Thermodynamic stability test of atropisomerism (LC-MS); assay type: physicochemical
Experimental: Agilent 1200 DAD model LC-MS; column: waters sunfire C18, 4.6×75 mm, 3.5 μm; mobile phase: water (0.1% trifluoroacetic acid):acetonitrile (0.1% trifluoroacetic acid).
The compounds of Examples 1-1a, 1-1b were atropisomers of each other and had different retention times in the LC-MS spectra, and the tautomerism of the atropisomers could be detected by LC-MS.
Compound 1-1a (1.5 mg) was dissolved in acetonitrile (1.0 mL), and the reaction solution was heated at 40° C. for 1.0 h, and the change in purity of compound 1-1a was detected by LC-MS. Compound 1-1a (1.5 mg) was dissolved in dimethyl sulfoxide (1.0 mL), and the reaction solution was heated at 120° C. for 3.0 h, and the change in purity of compound 1-1a was detected by LC-MS.
The same procedure was used to test the change in purity of compound 1-1b at 40° C. and 120° C.
The compounds of Examples 5-1, 5-2 were atropisomers of each other and had different retention times in the LC-MS spectra, and the tautomerism of the atropisomers could be detected by LC-MS.
Compound 5-1 (1.0 mg) was dissolved in DMSO (1.0 mL), and the reaction solution was heated at 37° C. and 120° C. for 3.0 h, respectively, and the change in purity of compound 5-1 was detected by LC-MS.

HIV-1 capsid protein = target: T1, HIV-1 capsid protein (Human immunodeficiency virus type 1 group M subtype B, UniProt P12493); experiment: In vitro polymerization of HIV-1 capsid protein (His-CA/GST-CA, Eu cryptate/XL665 energy transfer); assay type: biochemical, HIV-1 NL4-3
T1 construct: made in house; host or cells: E. coli (pET30 vector)
From the text: • 1. MAb Anti GST-Eu cryptate (Cisbio) • 2. MAb Anti 6HIS-XL665 (Cisbio) • 3. His tag HIV-1 capsid protein (hereinafter referred to as His-CA) • 4. GST tag HIV-1 capsid protein (hereinafter referred to as GST-CA) • 5. 384-well unbound surface microplate, white (Corning) • 6. Microplate reader (BMG)
The HIV-1 capsid proteins aggregate spontaneously in high-salt solutions. Capsid protein sequences derived from HIV-1 NL4-3 strains (GeneBank AF324493.2) were separately tagged with 6His tag and GST tag sequences at the C-terminus, cloned into pET30 vectors, and expressed and separately tagged for expression in E. coli system and purified. His-CA and GST-CA were mixed at high-salt concentrations, and the level of polymerization of capsid proteins was detected using GST antibody labeled with Eu3+-Cryptate (energy donor) and His antibody labeled with XL665 (energy acceptor). Since the excitation spectrum of Eu3+-Cryptate overlapped with the excitation spectrum of XL665, when the capsid proteins with these two tags formed a poly complex, the energy donor and the energy acceptor could be drawn to a sufficiently close distance, the energy donor released part of the captured energy under the excitation of an external light source (such as a xenon lamp or a laser), with the emission wavelength being 620 nM, part of the resonance was transferred to the energy acceptor to excite the energy acceptor, with the emission wavelength being 665 nM, and an optical signal was generated, the signal intensity of which was in direct proportion to the degree of polymerization of the tag proteins.
His-CA was diluted to 2 μM in a clean tube with protein diluent (50 mM Tris-HCl, pH 8.0, 50 mM NaCl, 0.4 mM MgCl2, 0.05% Triton X-100, 2% glycerol) while MAb Anti 6HIS-XL665 at a final concentration of 260 nM was added; GST-CA was diluted to 20 nM with protein diluent in another clean tube while MAb Anti GST-Eu cryptate at a final concentration of 3.33 nM was added and incubated on ice for half an hour. Compounds were first formulated into a concentration of 20 mM with DMSO, then diluted to a first concentration of 2 mM with DMSO and serially 5-fold diluted to the 8th concentration. Control wells were set and added with DMSO, and serially-diluted compounds were then 20-fold diluted with protein diluent to 10-fold working concentrations. Preparation of capsid protein polymerization liquid at 2-fold concentration: 50 mM Tris-HCl, pH 8.0, 1 M NaCl, 800 mM KF; to a pre-cooled white round-bottomed 384-well plate were added 4 uL of His-CA-His antibody mixture, 4 uL of GST-CA-GST antibody mixture, 2 uL of the compounds at 10-fold concentration and 10 uL of capsid protein polymerization reaction liquid at 2-fold concentration, the plate was sealed with a light-shielding sealing plate membrane after uniformly mixing, and the reaction plate was placed in a 37° C. incubator for incubation for 2 h. After incubation, the samples were excited with an excitation light at 337 nM, and signal values at 620 nM and 665 nM were collected for detection, wherein Ratio values=(665 nM/620 nM signal)×10000 was calculated according to the signal values. IC50 values for compounds were calculated using Graphpad Prism software based on each concentration of the compounds and the corresponding Ratio values.

[2] = Monkey pharmacokinetic study (iv, plasma LC/MS/MS); assay type: in vivo, cynomolgus monkeys; conditions: cynomolgus monkey, intravenous injection, 1 mg/kg
Experimental: Taking cynomolgus monkeys as test animals and the drug concentrations in monkey plasma at various times after intravenous injection (iv) of the compounds of Example 1-1 and Positive Control Example 1 were measured by using LC/MS/MS method. The pharmacokinetic performance in cynomolgus monkeys of the compounds of the present disclosure was studied and the pharmacokinetic profile thereof was evaluated.
6 non-naïve cynomolgus monkeys (999M-004, medicilon) with 2-5 kg, every 3 of which were in one group.
A certain amount of the compounds was weighed, 5% volume of DMSO, 30% PG, 30% PEG400 and 35% volume of normal saline were added, and the reaction mixture was subjected to vortex ultrasonic stirring for uniform mixing to give a clean administration solution at a concentration of 0.5 mg/mL.
Monkeys were intravenously injected with the compounds after fasting overnight, at a dose of 1.0 mg/kg and a volume of 2 mL/kg.
The compound of Example 1-1/Positive Control Example 1 was intravenously injected to monkeys, and 1 mL of blood was collected through femoral vein before administration and at 5 min, 0.25 h, 0.5 h, 1.0 h, 2.0 h, 4.0 h, 8.0 h, 12.0 h, 24 h, 32 h, 48 h, 56 h and 72 h after administration, respectively, and placed in EDTA-K2 anticoagulant blood collection tubes, plasma was centrifuged (centrifugal force: 2200 g, centrifugal time: 10 min, 2-8° C.), and stored at −80° C., and food intake was resumed 3 h after administration.

## CC(C)(C#Cc1nc([C@H](Cc2cc(F)cc(F)c2)NC(=O)Cn2nc(C(F)(F)F)c3c2C(F)(F)[C@@H]2C[C@H]32)c(-c2ccc(Cl)c3c(NS(C)(=O)=O)nn(CC(F)(F)F)c23)c2c1CCC2)S(C)(=O)=O (atropisomer, axis not shown; (aR)) [Example 1-1, N—((S)-1-((R)-4-(4-chloro-3-(methanesulfonamide)-1-(2,2,2-trifluoroethyl)-1H-indazol-7-yl)-1-(3-methyl-3-(methylsulfonyl)but-1-yn-1-yl)-6,7-dihydro-5H-cyclopenta[c]pyridin-3-yl)-2-(3,5-difluorophenyl)ethyl)-2-((3bS,4aR)-5,5-difluoro-3-(trifluoromethyl)-3b,4,4a,5-tetrahydro-1H-cyclopropa[3,4]cyclopenta[1,2-c]pyrazol-1-yl)acetamide]
[1]; heated at 40° C. for 1.0 h in acetonitrile
  atropisomer stability (change in purity by LC-MS): stable single-configuration compounds
[1]; heated at 120° C. for 3.0 h in dimethyl sulfoxide
  atropisomer stability (change in purity by LC-MS): stable single-configuration compounds
HIV-1 capsid protein
  IC50: 9 nM
HIV-1 capsid protein; 37° C., 2 h incubation
  Imax: 100%
[2]
  Clearance CLz/F: 2.0 mL/min/kg
[2]; plasma, read-out: Area under curve AUC0-72
  AUC(0-t): 8520 ng·h/mL
